Active and inactive are the calls of the source.
Legend:
[1] = Luminescent dose response cell-based high throughput screening assay for inhibitors of the Janus kinase 2 mutant JAK2V617F. [Related pubchem assays: 1446 (Primary screen.), 1521 (Confirmation assay.), 1486 (Counter screen.)]; type: functional
[2] = target: T1, Leucine aminopeptidase (Plasmodium falciparum 3D7, UniProt Q8IL11); experiment: P. falciparum M17LAP inhibitors, primary screen, biochemical, fluorogenic H-Leu-NHMec substrate, 1536-well (AID 1619); type: functional
T1 sequence (Q8IL11 whole entry): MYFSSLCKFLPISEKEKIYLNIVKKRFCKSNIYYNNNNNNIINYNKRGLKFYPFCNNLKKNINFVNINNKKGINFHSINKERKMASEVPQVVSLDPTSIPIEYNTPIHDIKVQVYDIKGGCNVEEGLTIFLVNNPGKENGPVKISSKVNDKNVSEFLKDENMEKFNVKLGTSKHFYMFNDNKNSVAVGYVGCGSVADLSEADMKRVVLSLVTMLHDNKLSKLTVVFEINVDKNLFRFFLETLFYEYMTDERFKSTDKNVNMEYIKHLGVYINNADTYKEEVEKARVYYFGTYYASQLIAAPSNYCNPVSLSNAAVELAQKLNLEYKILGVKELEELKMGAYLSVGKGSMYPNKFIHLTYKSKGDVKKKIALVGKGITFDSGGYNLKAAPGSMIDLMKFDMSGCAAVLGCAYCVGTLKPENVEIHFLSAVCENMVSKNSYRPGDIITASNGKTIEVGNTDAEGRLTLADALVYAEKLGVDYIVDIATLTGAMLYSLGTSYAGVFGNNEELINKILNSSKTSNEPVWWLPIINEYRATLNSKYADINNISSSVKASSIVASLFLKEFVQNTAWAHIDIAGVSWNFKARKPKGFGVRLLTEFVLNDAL

[3] = target: Bifunctional protein GlmU (Mycobacterium tuberculosis, UniProt P9WMN3); experiment: Inhibitors of Mycobacterial Glucosamine-1-phosphate acetyl transferase (GlmU). Secondary screen.; design: species or system Mycobacterium tuberculosis H37Rv
[4] = HCT116 cell viability decrease, GSK3B pretreatment – CellTiter-Glo, IC50, dose response (AID 1117339); type: functional; details: HCT-116
[5] = Glucagon-like peptide 1 release potency, NCI-H716 cell line, dose-response, half-maximal inhibitory concentration (AID 1117344); type: functional, cell-based
[6] = CellTiter-Glo luminescent dose response of DLD-1 viability loss (AID 1117352); type: functional
[7] = SNU-C1 cell viability reduction, dose response, CellTiter-Glo luminescence (AID 1117323); type: functional, cell-based
[8] = cytotoxicity toward HT-29 cells – cell-based, CellTiter-Glo luminescence, IC50, dose response (AID 1117330); type: functional
[9] = cytotoxicity toward HCT116 cells – cell-based, CellTiter-Glo luminescence, IC50, dose response (AID 1117332); type: functional; details: HCT-116
[10] = cytotoxicity toward Colo320 cells – cell-based, CellTiter-Glo luminescence, IC50, dose response (AID 1117334); type: functional; details: COLO 320
[11] = RKO cell viability reduction, dose response, CellTiter-Glo luminescence (AID 1117322); type: functional
[12] = Concentration-dependent survival of SW480 colon cancer line, luminescence detection with CellTiter-Glo, half-maximal inhibitory concentration (AID 1117338); type: functional
[13] = half-maximal inhibitory concentration for glucagon-like peptide-1 release, STC-1 cell line, dose-response (AID 1117345); type: functional, cell-based
[14] = target: Cytochrome P450 2C19 (Homo sapiens, UniProt P33261); experiment: Cytochrome panel assay with activity outcomes. Panel member name: p450-cyp2c19 Compounds with AC50 equal or less than 10 uM are considered active; type: functional; details: read-out: AC50
[15] = target: T2, Cytochrome P450 1A2 (Homo sapiens, UniProt P05177);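 note: PubChem cytochrome P450 panel assay, CYP1A2 panel member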
T2 sequence (P05177 whole entry): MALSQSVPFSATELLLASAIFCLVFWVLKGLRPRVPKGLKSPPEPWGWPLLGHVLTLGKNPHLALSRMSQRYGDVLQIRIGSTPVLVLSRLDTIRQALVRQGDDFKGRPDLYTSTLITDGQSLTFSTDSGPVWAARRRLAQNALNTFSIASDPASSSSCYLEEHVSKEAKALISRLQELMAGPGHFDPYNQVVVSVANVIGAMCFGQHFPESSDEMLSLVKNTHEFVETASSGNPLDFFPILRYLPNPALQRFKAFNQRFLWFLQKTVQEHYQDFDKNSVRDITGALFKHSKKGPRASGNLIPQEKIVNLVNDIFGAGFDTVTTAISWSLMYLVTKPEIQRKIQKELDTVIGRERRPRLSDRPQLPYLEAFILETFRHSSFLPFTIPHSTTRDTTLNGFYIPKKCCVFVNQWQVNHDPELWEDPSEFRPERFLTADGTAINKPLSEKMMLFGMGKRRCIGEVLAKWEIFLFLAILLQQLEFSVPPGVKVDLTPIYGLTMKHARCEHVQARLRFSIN

[16] = target: Protein-tyrosine kinase 2-beta (Homo sapiens, UniProt Q14289);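 note: potency of inhibitors of PYK2 kinase phosphorylation of poly-GT substrate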
[17] = target: Cytochrome P450 2C9 (Homo sapiens, UniProt P11712)
[18] = target: DNA dC->dU-editing enzyme APOBEC-3A (Homo sapiens, UniProt P31941); experiment: Dose Response confirmation of small molecule APOBEC3A DNA Deaminase Inhibitors via a fluorescence-based single-stranded DNA deaminase assay. [Related pubchem assays (depositor defined):AID493011, AID493024]; type: functional
[19] = target: DNA dC->dU-editing enzyme APOBEC-3G (Homo sapiens, UniProt Q9HC16); type: functional;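 note: Dose-response counterscreen measuring inhibition of APOBEC3G DNA deaminase activity, run while confirming APOBEC3A inhibitors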
[20] = target: T3, Mannose-6-phosphate isomerase (Homo sapiens, UniProt P34949); experiment: inhibitors of human PMI, primary screen, biochemical, fluorescence intensity, coupled assay (AID 1209)
T3 sequence (P34949 whole entry): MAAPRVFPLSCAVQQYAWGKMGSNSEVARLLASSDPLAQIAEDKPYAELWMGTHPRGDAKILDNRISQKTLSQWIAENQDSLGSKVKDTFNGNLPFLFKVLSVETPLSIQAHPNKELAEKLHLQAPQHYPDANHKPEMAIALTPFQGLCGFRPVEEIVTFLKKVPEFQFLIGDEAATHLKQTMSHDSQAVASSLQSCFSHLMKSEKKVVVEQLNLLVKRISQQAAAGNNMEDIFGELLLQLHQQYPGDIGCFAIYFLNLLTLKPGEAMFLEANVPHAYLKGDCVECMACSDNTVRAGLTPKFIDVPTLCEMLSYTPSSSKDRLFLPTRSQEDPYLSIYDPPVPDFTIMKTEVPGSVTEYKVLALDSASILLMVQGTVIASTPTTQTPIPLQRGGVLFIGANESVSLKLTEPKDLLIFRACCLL

[21] = target: T4, RNA-binding protein pos-1 (Caenorhabditis elegans, UniProt G5EF15); experiment: inhibitors of POS-1/mex-3 RNA binding, dose response, biochemical, fluorescence polarization (AID 1964);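 note: purified POS-1 fused to maltose binding protein made in E. coli; potency of compounds blocking POS-1 binding to fluorescent RNA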
T4 sequence (G5EF15 whole entry): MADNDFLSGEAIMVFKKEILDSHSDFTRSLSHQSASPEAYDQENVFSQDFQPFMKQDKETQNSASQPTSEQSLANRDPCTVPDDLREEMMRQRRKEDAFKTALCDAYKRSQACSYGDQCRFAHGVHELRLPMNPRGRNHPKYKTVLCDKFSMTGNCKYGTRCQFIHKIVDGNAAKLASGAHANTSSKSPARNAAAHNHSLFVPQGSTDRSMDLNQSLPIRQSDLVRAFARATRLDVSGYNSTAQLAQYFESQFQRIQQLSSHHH

[22] = target: T5, Carboxy-terminal domain RNA polymerase II polypeptide A small phosphatase 1 (Homo sapiens, UniProt Q9GZU7); experiment: inhibitors of CTDSP1, concentration-response testing, biochemical assay, absorbance-based, actives from ultra-high-throughput screening (AID 540297); type: functional
T5 sequence (Q9GZU7 whole entry): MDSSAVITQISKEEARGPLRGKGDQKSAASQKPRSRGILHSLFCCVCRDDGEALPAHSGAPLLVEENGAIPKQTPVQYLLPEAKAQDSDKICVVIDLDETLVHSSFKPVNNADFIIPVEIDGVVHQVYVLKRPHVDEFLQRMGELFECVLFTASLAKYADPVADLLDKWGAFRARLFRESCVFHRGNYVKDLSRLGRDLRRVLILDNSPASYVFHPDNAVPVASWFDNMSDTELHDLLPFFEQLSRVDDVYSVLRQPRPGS

[23] = target: T6, Histone-lysine N-methyltransferase NSD2 (Homo sapiens, UniProt O96028); type: biochemical
T6 sequence (O96028 whole entry): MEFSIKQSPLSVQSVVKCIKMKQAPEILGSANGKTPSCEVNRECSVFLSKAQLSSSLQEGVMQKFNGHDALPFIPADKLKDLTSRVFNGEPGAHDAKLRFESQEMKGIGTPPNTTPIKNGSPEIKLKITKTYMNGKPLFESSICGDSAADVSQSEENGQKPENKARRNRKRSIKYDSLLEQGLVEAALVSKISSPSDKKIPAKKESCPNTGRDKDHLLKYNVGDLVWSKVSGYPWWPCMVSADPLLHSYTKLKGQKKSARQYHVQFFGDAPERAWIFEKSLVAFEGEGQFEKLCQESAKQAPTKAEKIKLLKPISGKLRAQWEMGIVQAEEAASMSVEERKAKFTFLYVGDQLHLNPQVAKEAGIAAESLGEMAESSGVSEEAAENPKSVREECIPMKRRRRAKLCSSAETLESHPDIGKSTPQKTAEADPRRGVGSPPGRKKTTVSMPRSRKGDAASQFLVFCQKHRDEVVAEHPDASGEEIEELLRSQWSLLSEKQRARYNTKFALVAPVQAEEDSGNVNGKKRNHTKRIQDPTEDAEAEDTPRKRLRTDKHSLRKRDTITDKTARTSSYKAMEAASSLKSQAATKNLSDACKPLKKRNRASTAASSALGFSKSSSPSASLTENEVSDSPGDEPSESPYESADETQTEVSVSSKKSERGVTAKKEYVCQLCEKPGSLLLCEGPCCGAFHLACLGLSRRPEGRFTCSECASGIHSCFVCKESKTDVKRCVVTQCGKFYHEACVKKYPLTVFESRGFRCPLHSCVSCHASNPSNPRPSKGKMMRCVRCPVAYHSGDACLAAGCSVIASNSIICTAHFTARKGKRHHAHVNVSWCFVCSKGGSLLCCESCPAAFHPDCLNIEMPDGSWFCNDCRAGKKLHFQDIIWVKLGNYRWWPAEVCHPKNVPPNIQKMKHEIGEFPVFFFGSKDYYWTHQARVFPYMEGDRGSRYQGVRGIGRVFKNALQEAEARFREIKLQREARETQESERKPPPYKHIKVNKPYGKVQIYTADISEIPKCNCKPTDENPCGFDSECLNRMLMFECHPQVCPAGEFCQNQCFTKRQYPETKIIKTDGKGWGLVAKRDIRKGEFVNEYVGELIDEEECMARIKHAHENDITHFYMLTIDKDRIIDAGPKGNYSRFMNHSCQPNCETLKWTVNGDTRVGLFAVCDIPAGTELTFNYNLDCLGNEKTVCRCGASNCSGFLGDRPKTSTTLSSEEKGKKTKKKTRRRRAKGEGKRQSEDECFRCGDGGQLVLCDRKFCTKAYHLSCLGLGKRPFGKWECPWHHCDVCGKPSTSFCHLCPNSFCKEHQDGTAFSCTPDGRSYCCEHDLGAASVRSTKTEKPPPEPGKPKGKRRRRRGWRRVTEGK

[24] = target: T7, Heat shock factor protein 1 (Mus musculus, UniProt P38532); experiment: HSF1 potentiators in luciferase reporter cells, confirmation, cell-based, NIH3T3, luminescence, dose retest (AID 435004); type: functional;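 note: stress induced by proteasome inhibitor MG132 added 30 min after compound; luciferase reporter driven by HSF1 response element in NIH3T3 cells; actives raise luminescence as potentiators of the MG132 stress response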
T7 sequence (P38532 whole entry): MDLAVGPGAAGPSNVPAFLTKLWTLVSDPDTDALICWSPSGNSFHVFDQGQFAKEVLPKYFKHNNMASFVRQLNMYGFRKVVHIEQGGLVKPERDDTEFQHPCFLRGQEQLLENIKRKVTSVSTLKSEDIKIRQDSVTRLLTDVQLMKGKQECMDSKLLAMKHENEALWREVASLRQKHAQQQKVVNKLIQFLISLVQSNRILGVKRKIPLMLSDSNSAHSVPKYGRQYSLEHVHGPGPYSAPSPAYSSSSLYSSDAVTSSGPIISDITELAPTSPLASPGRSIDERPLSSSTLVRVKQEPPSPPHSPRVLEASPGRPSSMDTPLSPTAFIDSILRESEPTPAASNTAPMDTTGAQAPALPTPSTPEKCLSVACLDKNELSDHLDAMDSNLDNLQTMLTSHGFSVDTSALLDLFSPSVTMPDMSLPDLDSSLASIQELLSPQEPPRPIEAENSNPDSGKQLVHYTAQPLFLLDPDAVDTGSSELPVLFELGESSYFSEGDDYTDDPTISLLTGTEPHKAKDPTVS

[25] = Vero cell cytotoxicity, dose response, cytotoxicity control for Vif-APOBEC3G degradation inhibitor project, Vero cells (AID 1117358); type: functional; details: Human immunodeficiency virus 1, Vero

Sequence of DNA dC->dU-editing enzyme APOBEC-3A (P31941 whole entry): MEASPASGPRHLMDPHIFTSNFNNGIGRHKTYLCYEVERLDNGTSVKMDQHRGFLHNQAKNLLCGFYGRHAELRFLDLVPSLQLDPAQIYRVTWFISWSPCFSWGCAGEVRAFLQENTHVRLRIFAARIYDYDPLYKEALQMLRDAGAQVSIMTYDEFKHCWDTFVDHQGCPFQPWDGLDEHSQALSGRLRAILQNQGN
Sequence of DNA dC->dU-editing enzyme APOBEC-3G (Q9HC16 whole entry): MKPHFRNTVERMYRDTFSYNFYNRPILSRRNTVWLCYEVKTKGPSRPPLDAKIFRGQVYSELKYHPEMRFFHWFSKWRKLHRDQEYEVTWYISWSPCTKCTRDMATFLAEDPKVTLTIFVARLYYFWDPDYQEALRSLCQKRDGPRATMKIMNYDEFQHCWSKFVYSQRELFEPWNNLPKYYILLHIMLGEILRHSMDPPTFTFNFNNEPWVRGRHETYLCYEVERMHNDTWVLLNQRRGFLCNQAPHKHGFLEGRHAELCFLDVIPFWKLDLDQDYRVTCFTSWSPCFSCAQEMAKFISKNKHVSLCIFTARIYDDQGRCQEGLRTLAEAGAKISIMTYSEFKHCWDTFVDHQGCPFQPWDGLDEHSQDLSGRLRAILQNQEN
Sequence of Protein-tyrosine kinase 2-beta (Q14289 whole entry): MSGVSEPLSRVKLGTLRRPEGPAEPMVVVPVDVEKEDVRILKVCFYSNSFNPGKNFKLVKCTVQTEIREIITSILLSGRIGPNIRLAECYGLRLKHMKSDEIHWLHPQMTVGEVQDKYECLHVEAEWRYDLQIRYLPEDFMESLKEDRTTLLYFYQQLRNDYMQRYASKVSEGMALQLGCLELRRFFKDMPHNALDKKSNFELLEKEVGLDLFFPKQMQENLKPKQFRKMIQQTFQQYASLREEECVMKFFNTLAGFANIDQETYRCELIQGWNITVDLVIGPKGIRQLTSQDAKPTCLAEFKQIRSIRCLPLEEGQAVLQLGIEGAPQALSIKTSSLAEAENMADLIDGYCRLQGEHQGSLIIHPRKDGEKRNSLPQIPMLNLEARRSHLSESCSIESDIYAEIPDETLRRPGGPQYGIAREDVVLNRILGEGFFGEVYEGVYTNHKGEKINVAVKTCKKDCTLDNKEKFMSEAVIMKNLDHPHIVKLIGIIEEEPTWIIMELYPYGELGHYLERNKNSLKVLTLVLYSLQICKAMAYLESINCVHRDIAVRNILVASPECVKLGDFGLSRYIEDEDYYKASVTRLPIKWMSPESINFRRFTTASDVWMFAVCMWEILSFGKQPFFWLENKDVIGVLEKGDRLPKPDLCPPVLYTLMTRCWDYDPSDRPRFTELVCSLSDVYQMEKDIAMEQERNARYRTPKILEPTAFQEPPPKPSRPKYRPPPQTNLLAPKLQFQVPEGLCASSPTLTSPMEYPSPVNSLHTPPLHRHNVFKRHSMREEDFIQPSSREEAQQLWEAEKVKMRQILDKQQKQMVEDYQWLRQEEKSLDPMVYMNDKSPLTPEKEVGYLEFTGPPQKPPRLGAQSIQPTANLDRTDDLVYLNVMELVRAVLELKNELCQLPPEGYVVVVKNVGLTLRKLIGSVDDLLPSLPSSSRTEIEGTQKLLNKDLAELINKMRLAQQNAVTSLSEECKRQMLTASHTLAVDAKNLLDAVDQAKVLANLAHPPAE
Sequence of Bifunctional protein GlmU (P9WMN3 whole entry): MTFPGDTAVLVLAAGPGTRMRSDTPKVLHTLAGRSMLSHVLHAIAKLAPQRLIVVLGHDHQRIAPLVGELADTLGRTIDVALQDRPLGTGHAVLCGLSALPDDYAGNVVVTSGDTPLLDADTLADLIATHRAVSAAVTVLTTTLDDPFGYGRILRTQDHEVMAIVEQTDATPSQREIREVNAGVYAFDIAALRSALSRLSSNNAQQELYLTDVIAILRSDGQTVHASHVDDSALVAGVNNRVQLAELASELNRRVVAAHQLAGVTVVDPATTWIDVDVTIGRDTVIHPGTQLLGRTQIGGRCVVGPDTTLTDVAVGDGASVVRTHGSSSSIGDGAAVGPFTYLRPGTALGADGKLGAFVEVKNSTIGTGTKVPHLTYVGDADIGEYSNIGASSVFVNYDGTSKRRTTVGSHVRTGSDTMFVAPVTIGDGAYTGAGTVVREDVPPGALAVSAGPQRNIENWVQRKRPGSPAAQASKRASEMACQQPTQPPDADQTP
Sequence of Cytochrome P450 2C19 (P33261 whole entry): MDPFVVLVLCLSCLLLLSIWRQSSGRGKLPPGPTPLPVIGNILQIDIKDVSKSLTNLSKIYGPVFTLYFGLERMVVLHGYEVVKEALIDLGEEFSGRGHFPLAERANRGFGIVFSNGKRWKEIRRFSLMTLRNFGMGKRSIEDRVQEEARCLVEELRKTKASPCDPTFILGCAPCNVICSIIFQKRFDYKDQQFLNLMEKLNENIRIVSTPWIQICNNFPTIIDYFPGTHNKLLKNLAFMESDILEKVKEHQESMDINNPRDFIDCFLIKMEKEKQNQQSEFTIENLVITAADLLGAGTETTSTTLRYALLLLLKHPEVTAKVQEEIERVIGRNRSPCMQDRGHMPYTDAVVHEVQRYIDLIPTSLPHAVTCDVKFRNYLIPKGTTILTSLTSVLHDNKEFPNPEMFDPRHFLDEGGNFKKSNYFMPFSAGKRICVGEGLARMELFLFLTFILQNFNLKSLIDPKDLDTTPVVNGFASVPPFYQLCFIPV
Sequence of Cytochrome P450 2C9 (P11712 whole entry): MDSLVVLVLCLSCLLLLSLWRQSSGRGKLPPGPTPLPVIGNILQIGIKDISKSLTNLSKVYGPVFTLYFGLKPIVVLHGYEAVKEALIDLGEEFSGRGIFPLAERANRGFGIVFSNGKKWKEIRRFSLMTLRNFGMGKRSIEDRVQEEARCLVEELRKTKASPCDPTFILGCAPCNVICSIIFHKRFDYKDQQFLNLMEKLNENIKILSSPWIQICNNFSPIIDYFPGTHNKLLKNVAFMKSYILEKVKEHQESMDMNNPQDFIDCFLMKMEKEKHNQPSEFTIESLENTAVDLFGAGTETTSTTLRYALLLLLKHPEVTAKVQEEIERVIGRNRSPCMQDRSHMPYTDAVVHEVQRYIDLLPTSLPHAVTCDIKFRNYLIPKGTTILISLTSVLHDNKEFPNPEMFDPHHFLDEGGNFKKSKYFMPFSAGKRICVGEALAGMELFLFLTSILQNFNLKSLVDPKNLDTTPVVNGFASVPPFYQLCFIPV

COC(=O)COc1cccc2c(=O)n(CC(=O)NCc3ccc(F)cc3)ccc12
IC50 [1]: 1.14 µM (active)

O=C(Nc1ccc(Oc2ccc(C(=O)O)c(C(=O)O)c2)cc1)c1cccs1
IC50 [2]: 30.7 µM (active) | IC50 [3]: 97.3 µM (active)

c1ccc2c(c1)Sc1ccccc1N2CC1CN2CCC1CC2 (stereo not given) [MEQUITAZINE]
IC50 [4]: > 20 µM (inactive) | IC50 [5]: > 40 µM (inactive) | IC50 [6]: > 20 µM (inactive) | IC50 [7]: > 20 µM (inactive) | IC50 [8]: > 20 µM (inactive) | IC50 [9]: > 20 µM (inactive) | IC50 [10]: > 20 µM (inactive) | IC50 [11]: 8.46 µM (inactive) | IC50 [12]: 5.43 µM (inactive) | IC50 [13]: > 40 µM (inactive)

N#Cc1ccccc1/C=N/Nc1nc(-c2ccccc2)c2cc(Cl)ccc2n1
AC50 [14]: 25.1 µM (inconclusive) | AC50 [15]: 7.08 µM (inconclusive) | IC50 [16]: > 69.5 µM (not active) | AC50 [17]: 2.24 µM (inconclusive)

C[N+]12CCC(CC1)C(C#N)(N1CCOCC1)C2 (stereo not given)
IC50 [18]: 4.57 µM (active) | IC50 [19]: 4.38 µM (active) | IC50 [20]: > 50 µM (not active)

Cc1cc(/C=N/NC(=O)c2cccc(N(C)C)c2)c(C)n1-c1cc(C(=O)O)cc(C(=O)O)c1
IC50 [18]: 9.31 µM (active) | IC50 [19]: 20.6 µM (active) | EC50 [21]: > 300 µM (not active) | IC50 [22]: 2.07 µM (active) | IC50 [3]: 166 µM (active) | AC50 [23]: > 20 µM (inactive)

O=C(/C(=N/N=C/c1ccc(O)c(O)c1)c1ccccc1)c1ccccc1
EC50 [24]: > 260 µM (inactive) | IC50 [1]: 1.8 µM (active)

S=C(Nc1ccc(Oc2ccccc2)cc1)NC1CCCCC1
CC50 [25]: 30.1 µM (active)

O=[N+]([O-])c1cccc(/C=C/c2nc3cc([N+](=O)[O-])ccc3[nH]2)c1
IC50 [16]: 20 µM (not active)

— ChEMBL document CHEMBL1201862, “PubChem BioAssay data set” (2004)
